Article PMC9358669, “Native metabolomics identifies the rivulariapeptolide family of protease inhibitors” (Nature Communications, 2022)
Entries after “also recorded” stand apart in the source; their conditions may differ. Starred links: 1 amine or outer side, 2 acyl side, 3 side chain; linkers in the order of their positions; H or OH if unused. Positions of bridges follow the written chain, without caps; N, C: chain ends. Non-standard residues stand in square brackets, D forms with d. Residues, ends and D or L forms follow the SMILES beside them. *: point of attachment. Ahp(3S,6R)alloIle = CC[C@@H](C)[C@@H](C(=O)[*:2])N1C(=O)[C@@H](N[*:1])CC[C@H]1O; Leu(3R-OH,Nα-propionyl) = CCC(=O)N[C@H](C(=O)*)[C@H](O)C(C)C; Propanoyl(2R-OH,3-(4-HOPh)) = O=C([C@H](O)Cc1ccc(O)cc1)*; Propanoyl(2R-OMe,3-OSO3H) = CO[C@H](COS(=O)(=O)O)C(=O)*; NMeTyr(3-Br,OMe) = CN[C@@H](Cc1ccc(OC)c(Br)c1)C(=O)O; X1 = CC(C)[C@@H](O[*:3])[C@H](N[*:1])C(=O)[*:2]; NMeF = CN[C@@H](Cc1ccccc1)C(=O)O; NMeT = CN[C@H](C(=O)O)[C@@H](C)O; dPhLac = O=C(O)[C@H](O)Cc1ccccc1; NMeA = CN[C@@H](C)C(=O)O; NMeDha = C=C(NC)C(=O)O

Molecular target: T1, Chymotrypsin (Bos taurus, UniProt P00766)
T1 construct: purchased Sigma-Aldrich
Assay: Native metabolomics / native MS detection of chymotrypsin-ligand complexes
Assay type: binding
Settings: control compounds pooled at 10 µg/mL
Method: For native metabolomics experiments, the same chromatographic parameters were used and in addition, 220 µL/min (setup A) or 150 µL/min (setup B) ammonium acetate buffer was infused post-column through a make-up pump and a PEEKT-splitter and enzyme solution was infused with 2 µL/min flow rate via the integrated syringe pump. ESI settings were set to 40 arb. units sheath gas flow, the auxiliary gas flow was set to 10 arb. units and sweep gas flow was set to 0 arb. units. The auxiliary gas temperature was set to 150 °C. The spray voltage was set to 3 kV and the inlet capillary was heated to 253 °C. S-lens level was set to 30 V applied. MS scan range was set to 2000-4000 m/z (setup A) and 2500–4000 m/z (setup B) with a resolution Rm/z 200 140,000 (setup A) and 120,000 (setup B) with 2 microscans. MS acquisition was performed in all-ion fragmentation (AIF) mode with Rm/z 200 with 20% HCD collision energy and an isolation window of 2000 –4000 m/z (setup A) or 2500–4000 m/z (setup B).
For native LC-MS data, multiple charged spectra were deconvoluted using the Xtract algorithm in Qualbrowser, part of the Xcalibur software (Thermo Scientific) and also using FLASHDeconv (version 2.0Beta) {Jeong, K. et al. FLASHDeconv: Ultrafast, High-Quality Feature Deconvolution for Top- Down Proteomics. Cell Syst 10, 213-218 e216 (2020).}. For Xtract algorithm, both deconvoluted native LC-MS and metabolomics LC-MS/MS.raw files were converted to the centroid.mzML file format using MSconvert of the proteowizard software package. For FLASHDeconv, the raw files were converted into centroid m/zML again using MSconvert software first. Then the converted mzML files were deconvolved to generate deconvolved.mzML format files. Feature finding of both file types was performed using a modified version of MZmine2.37 (corr.17.7). Feature tables from both intact protein mass and metabolomics data were matched by their retention time (RT) and an m/z offset corresponding to the mass of chymotrypsin (25234 Da) with an RT tolerance of 0.2 min and a mass tolerance of 4 Da.
To optimize ESI setting as well as the influence of NH4Acetate concentration and pH, we used molassamide as a test compound. For optimization of ESI settings, we performed flow injections without a column and ramped ESI aux gas temperature, in-source CID energy, S-lense RF voltage. Optimization of pH values over the entire LC gradient and peak intensities were both assessed using three different make-up buffers. Make-up buffer 1 was water, make-up buffer 2 was 10 mM NH4Acetate buffer, and make-up buffer 3 was 10 mM NH4Acetate buffer + 0.2% ammonium hydroxide, v/v. Effects of NH4Acetate concentration was assessed with an online mixed make-up flow (using Experimental Setup B) with the low-pressure gradient pump. As solvent A we used LC-MS grade water and 100 mM NH4Acetate as solvent B. Molassamide was prepared as 100 µM solutions from a 10 mM stock solution in DMSO by preparing a 1:100 dilution into solvent mixture 1 (water + 10% acetonitrile + 0.1% formic acid). Samples were analyzed as described in micro-flow LC-MS/MS data acquisition (setup A); 2 µL of each solution were injected into the mass spectrometer, while chymotrypsin (Sigma), dissolved in water to a final concentration of 2 mg/mL, was injected through the syringe pump at a flow rate of 2 µL/min. pH values were assessed by disconnecting the flow to the source and collecting ~30 µL of solvent every minute, then testing this value on pH paper.
Molassamide was prepared as 100 µM solutions from a 10 mM stock solution in DMSO by preparing a 1:100 dilution into solvent mixture 1 (water + 10% acetonitrile + 0.1% formic acid). From this 100 µM solution, dilutions were prepared at 10, 1, and 0.1 µM into solvent mixture 1. 2 µL of each solution were injected into the mass spectrometer. […]

Molecule | binding to chymotrypsin under native MS conditions
CC[C@H](C)[C@@H](C(=O)O[C@@H](CC(C)C)C(=O)N[C@@H](CC(C)C)C(=O)N[C@@H](C)/C=C/C(=O)N1C(=O)C=C(OC)[C@@H]1C)N(C)C [gallinamide A] | did not observe the binding; also recorded: no binding
Oc1cc(O)cc(O)c1 [phloroglucinol] | did not observe the binding; also recorded: no binding
C=C1C(=O)N[C@@H](C)C(=O)N(C)[C@@H](C)C(=O)N[C@@H]([C@H](OC(=O)[C@@H](NC(=O)CC)[C@H](O)C(C)C)C(C)C)C(=O)N(C)[C@@H]([C@@H](C)OC)C(=O)O[C@H](C(C)C)[C@H](NC(C)=O)C(=O)O[C@H](Cc2ccccc2)C(=O)N1C [FR900359] (Ac-[X1][dPhLac][NMeDha]A[NMeA][X1](Leu(3R-OH,Nα-propionyl))[NMeT](Me); ester 1-C) | did not observe the binding; also recorded: no binding
O=c1c(-c2ccc(O)cc2)coc2cc(O)cc(O)c12 [genistein] | did not observe the binding; also recorded: no binding
O=C1c2ccc(O)c(O)c2C(=O)c2c(O)ccc(O)c21 [quinalizarin] | did not observe the binding; also recorded: no binding

System: Chymotrypsin
Assay: not given
Design: method as in earlier work
Settings: Supplementary Table 5, Top 50 chymotrypsin inhibitors among Ahp-cyclodepsipeptides; cited from earlier work

Molecule | IC50
CCC(=O)N[C@@H](CCC(N)=O)C(=O)N[C@@H]1C(=O)N[C@@H](CC(C)C)C(=O)N[C@H]2CC[C@@H](O)N(C2=O)[C@@H](Cc2ccccc2)C(=O)N(C)[C@@H](Cc2ccc(O)cc2)C(=O)N[C@@H](C(C)C)C(=O)O[C@@H]1C [Crocapeptin A1] | 100 nM
Micropeptin 88-A | 400 nM
CC[C@H](C)[C@@H]1NC(=O)[C@H](Cc2ccc(OC)cc2)N(C)C(=O)[C@H]([C@@H](C)O)N2C(=O)[C@H](CC[C@H]2O)NC(=O)[C@H](CC(C)C)NC(=O)[C@@H](NC(=O)[C@H](CCC(N)=O)NC(=O)[C@H](CCc2ccc(O)cc2)NC(=O)[C@@H](O)CO)[C@@H](C)OC1=O [Planktopeptin BL1125] | 800 nM
CC[C@H](C)[C@@H]1NC(=O)[C@H](Cc2ccccc2)N(C)C(=O)[C@H](C(C)C)N2C(=O)[C@H](CC[C@H]2O)NC(=O)[C@H](CC2C=CC(O)CC2)NC(=O)[C@@H](NC(=O)[C@@H](CCC(N)=O)NC(=O)C(O)Cc2ccc(O)cc2)[C@H](C)OC1=O (stereo partly drawn) [Micropeptin KB1046] | 220 nM
CC[C@@H](C)[C@H]1NC(=O)[C@@H](Cc2ccccc2)N(C)C(=O)[C@@H](CC(C)C)N2C(=O)[C@@H](CC[C@@H]2O)NC(=O)[C@@H](Cc2ccc(O)cc2)NC(=O)[C@H](NC(=O)[C@H](CCC(N)=O)NC(=O)[C@H](O)Cc2ccc(O)cc2)[C@@H](C)OC1=O [Micropeptin DR1056] | 1600 nM
Micropeptin T-20 | 2.5 nM
Micropeptin 88-Y | 1300 nM
CCCCCCCC(=O)N[C@@H](CCC(=O)O)C(=O)N[C@@H]1C(=O)N[C@@H](Cc2ccc(O)cc2)C(=O)N[C@H]2CC[C@@H](O)N(C2=O)[C@@H](Cc2ccccc2)C(=O)N(C)[C@@H](Cc2ccc(O)cc2)C(=O)N[C@@H](C(C)C)C(=O)O[C@@H]1C [Micropeptin D] | 1200 nM
CCCCCC(=O)NC(CC(=O)O)C(=O)NC1C(=O)NC(Cc2ccc(O)cc2)C(=O)NC2CCC(O)N(C2=O)C(Cc2ccccc2)C(=O)N(C)C(CCc2ccc(O)cc2)C(=O)NC(C(C)C)C(=O)OC1C (stereo not drawn) [Cyanopeptolin CP1027] | 260 nM
Micropeptin MM850 | 1700 nM
CC[C@@H](C)[C@H]1C(=O)N(C)[C@@H](Cc2ccc(OC)c(Br)c2)C(=O)N[C@@H]([C@@H](C)CC)C(=O)O[C@H](C)[C@H](NC(=O)[C@@H](NC(=O)[C@@H](COS(=O)(=O)O)OC)C(C)C)C(=O)N[C@@H](CCCCN)C(=O)N[C@H]2CC[C@@H](O)N1C2=O [Jizanpeptin C] ({Propanoyl(2R-OMe,3-OSO3H)}-VTK[Ahp(3S,6R)alloIle][NMeTyr(3-Br,OMe)]I; ester 2-C) | 1400 nM
Cyanopeptolin CP992 | 240 nM
CC[C@H](C)[C@@H]1NC(=O)[C@H](Cc2ccc(O)cc2)N(C)C(=O)[C@H]([C@@H](C)CC)N2C(=O)C(CCC2O)NC(=O)[C@H](CC(C)C)NC(=O)[C@@H]2C(OC1=O)C(C)CN2C(=O)[C@H](CCC(N)=O)NC(C)=O (stereo partly drawn) [Nostopeptin B] | 1600 nM
C/C=C1\NC(=O)[C@@H](NC(=O)[C@@H](NC(=O)[C@H](C)NC(=O)C/C(C)=C/Cl)[C@@H](C)CC)[C@@H](C)OC(=O)[C@H](C(C)C)NC(=O)[C@H](Cc2ccc(O)cc2)N(C)C(=O)[C@H](Cc2ccccc2)N2C(=O)[C@H](CC[C@H]2O)NC1=O [Tutuilamide A] | 1000 nM
CC[C@@H](C)[C@H]1C(=O)N(C)[C@@H](Cc2ccccc2)C(=O)N[C@@H](C(C)C)C(=O)O[C@H](C)[C@H](NC(=O)[C@H](CCC(N)=O)NC(=O)[C@H](O)Cc2ccc(O)cc2)C(=O)N[C@@H](Cc2ccc(O)cc2)C(=O)N[C@H]2CC[C@@H](O)N1C2=O [Micropeptin KT1042] ({Propanoyl(2R-OH,3-(4-HOPh))}-QTY[Ahp(3S,6R)alloIle][NMeF]V; ester 2-C) | 260 nM
C/C=C1\NC(=O)[C@@H](NC(=O)[C@@H](NC(=O)[C@H](C)NC(=O)CCC)C(C)C)[C@@H](C)OC(=O)[C@H](C(C)C)NC(=O)[C@H](Cc2ccc(O)cc2)N(C)C(=O)[C@H](Cc2ccccc2)N2C(=O)[C@H](CC[C@H]2O)NC1=O [Bouillomide A] | 170 nM
CC(C)C[C@@H]1NC(=O)[C@@H](NC(=O)[C@@H](NC(=O)[C@H](C)NC(=O)[C@H](CCCc2ccc(O)cc2)NC(=O)[C@H](O)CO)C(C)C)[C@@H](C)OC(=O)[C@H](C(C)C)NC(=O)[C@H](Cc2ccc(O)c(Br)c2)N(C)C(=O)[C@@H]2[C@H](C)O[C@@H]3CC[C@H](NC1=O)C(=O)N23 [Largamide D oxazolidine] | 928 nM
CCCCCCCC(=O)N[C@@H](CCC(=O)O)C(=O)N[C@@H]1C(=O)N[C@@H](Cc2ccc(O)cc2)C(=O)N[C@H]2CC[C@@H](O)N(C2=O)[C@@H](CC(C)C)C(=O)N(C)[C@@H](Cc2ccc(O)cc2)C(=O)N[C@@H](C(C)C)C(=O)O[C@@H]1C [Micropeptin F] | 1500 nM
C/C=C1\NC(=O)[C@@H](NC(=O)[C@@H](NC(=O)[C@H](C)NC(=O)C/C(C)=C/Cl)C(C)C)[C@@H](C)OC(=O)[C@H](C(C)C)NC(=O)[C@H](Cc2ccc(O)cc2)N(C)C(=O)[C@H](Cc2ccccc2)N2C(=O)[C@H](CC[C@H]2O)NC1=O [Tutuilamide B] | 577 nM
Crocapeptin B | 200 nM
CCC(C)C(=O)N[C@@H](CCC(N)=O)C(=O)N[C@@H]1C(=O)N[C@@H](CC(C)C)C(=O)N[C@H]2CC[C@@H](O)N(C2=O)[C@@H](Cc2ccccc2)C(=O)N(C)[C@@H](Cc2ccc(O)cc2)C(=O)N[C@@H](C(C)C)C(=O)O[C@@H]1C (stereo partly drawn) [Crocapeptin A3] | 100 nM

Same assay, conditions: cited from earlier work

Molecule | IC50
Microcystin 996 | 640 nM
